Measured values reported in ChEMBL document CHEMBL1145932, “Design and synthesis of novel bioactive peptides and peptidomimetics” (J Med Chem, 2003).
pEC50: −log10 of the molar value. Active and inactive are the calls of the source. The rule behind the calls is not given here. Numbered stars: 1 amine (or outer) side, 2 acyl side, 3 side chain; on linkers, the order of the positions; unused ones are H or OH. Square brackets hold non-standard residues; d marks the D form. Peptide text beside a SMILES is read from it. * marks the point of attachment. ξ: configuration not given here. Doxorubicin(3'-N) = COc1cccc2c1C(=O)c1c(O)c3c(c(O)c1C2=O)C[C@@](O)(C(=O)CO)C[C@@H]3O[C@H]1C[C@H](N*)[C@H](O)[C@H](C)O1; X2 = COc1cccc2c1C(=O)c1c(O)c3c(c(O)c1C2=O)C[C@@](O)(C(=O)CO)C[C@@H]3O[C@H]1C[C@@H](N*)[C@H](O)[C@H](C)O1; X1 = COc1cccc2c1C(=O)c1c(O)c3c(c(O)c1C2=O)C[C@@](O)(C(=O)CO)C[C@@H]3OC1CC(N*)C(O)C(C)O1; ξPro(4R-OH) = O=C(O)C1C[C@@H](O)CN1; Glutaryl = O=C(CCCC(=O)[*:2])[*:1]; Hyp = O=C(O)[C@@H]1C[C@@H](O)CN1; Chg = N[C@H](C(=O)O)C1CCCCC1; Suc = O=C(CCC(=O)[*:2])[*:1]

What was measured:
Rattus norvegicus [1] = organism: Rattus norvegicus; assay: In vitro relative potency for the inhibition of growth hormone release; format: functional
Rattus norvegicus [2] = organism: Rattus norvegicus; assay: Relative potency for the inhibition of glucagon hormone release; format: functional
Rattus norvegicus [3] = organism: Rattus norvegicus; assay: Relative potency for the inhibition of insulin hormone release; format: functional
[4] = Half life period was determined; format: ADME
LNCaP = assay: In vitro effective concentration against LNCaP prostate cancer cell line; format: functional, cell-based; conditions: Homo sapiens
DuPro = assay: In vitro effective concentration against DuPRO cancer cell line; format: functional, cell-based; conditions: Homo sapiens
Rattus norvegicus [5] = organism: Rattus norvegicus; assay: Relative potency for the inhibition of growth hormone release; format: functional
Rattus norvegicus [6] = organism: Rattus norvegicus; assay: Relative potency for the inhibition of glucagon hormone release; Active; format: functional, organism-based
Mus musculus [7] = assay: In vivo maximum tolerated dose in nude mice was determined; format: functional
T47D = assay: In vitro effective concentration against T47D cell line; format: functional, cell-based; conditions: Homo sapiens
Mus musculus [8] = assay: In vivo maximum tolerated dose was determined; format: functional
COLO 320 = assay: In vitro effective concentration against COLO 320 cell line; format: functional, cell-based; conditions: Homo sapiens
Mus musculus [9] = assay: In vivo percentage reduction of prostate specific antigen (PSA) was determined at a dose of 0.26 umol/kg of the compound; format: functional, Prostate gland
Mus musculus [10] = assay: In vivo percentage weight reduction of tumor was determined at a dose of 0.26 umol/kg of the compound; format: functional

Row | Compound | Relative potency (Rattus norvegicus [1]) | Relative potency (Rattus norvegicus [3]) | half-life [4] [min] | pEC50 (LNCaP) | other results
1 | C[C@@H](O)[C@@H]1NC(=O)[C@H](CCCCN)NC(=O)[C@H](Cc2c[nH]c3ccccc23)NC(=O)[C@H](Cc2ccccc2)NC(=O)CN2CCC[C@H](NC1=O)C2=O | < 0.005 | < 0.07 | – | – | Relative potency (Rattus norvegicus [2]): < 0.07
2 | COc1cccc2c1C(=O)c1c(O)c3c(c(O)c1C2=O)C[C@@](O)(C(=O)CO)C[C@@H]3O[C@H]1C[C@@H](NC(=O)[C@H](CC(C)C)NC(=O)[C@H](CO)NC(=O)[C@H](CCC(N)=O)NC(=O)[C@@H](NC(=O)[C@H](CO)NC(=O)[C@H](C)NC(=O)[C@@H]2C[C@@H](O)CN2C(=O)CCCC(=O)O)C2CCCCC2)[C@H](O)[C@H](C)O1 (Glutaryl-[Hyp]AS[Chg]QSL-X2) | – | – | 30 | 5.30 | pEC50 (DuPro): < 4.00
3 | C[C@@H](O)[C@@H]1NC(=O)[C@H](CCCCN)NC(=O)[C@@H](Cc2c[nH]c3ccccc23)NC(=O)[C@H](Cc2ccccc2)NC(=O)[C@@H]2CCCN2C(=O)[C@H](Cc2ccccc2)N(C)C1=O | 0.53 | 1.1 | – | – | Relative potency (Rattus norvegicus [2]): 2
4 | C[C@H](O)[C@H]1NC(=O)[C@@H](Cc2ccccc2)NC(=O)[C@@H](C)N(C)C(=O)[C@@H](Cc2ccccc2)NC(=O)[C@H](Cc2c[nH]c3ccccc23)CNC(=O)[C@@H](CCCCN)NC1=O | 0.003 | – | – | – | –
5 | C[C@@H](O)[C@@H]1NC(=O)[C@H](CCCCN)NC(=O)[C@@H](Cc2c[nH]c3ccccc23)NC(=O)[C@H](Cc2ccccc2)NC(=O)[C@@H]2CSSC[C@H](NC1=O)C(=O)NCCCCCCC(=O)N2 | – | – | – | – | Relative potency (Rattus norvegicus [5]): 1.24
6 | C[C@@H](O)[C@@H]1NC(=O)[C@H](CCCCN)NC(=O)[C@@H](Cc2c[nH]c3ccccc23)NC(=O)[C@H](Cc2ccccc2)NC(=O)CN2CC[C@H](NC1=O)C2=O | 0.004 | < 0.07 | – | – | Relative potency (Rattus norvegicus [2]): < 0.07
7 | COc1cccc2c1C(=O)c1c(O)c3c(c(O)c1C2=O)C[C@@](O)(C(=O)CO)C[C@@H]3OC1CC(NC(=O)C(N)CC(C)C)C(O)C(C)O1 (stereo partly specified) | – | – | – | 5.17 | pEC50 (DuPro): 4.85
8 | C[C@H](N)C(=O)NCC(=O)N[C@H]1CSSC[C@@H](C(=O)O)NC(=O)[C@H](CO)NC(=O)[C@H]([C@@H](C)O)NC(=O)[C@H](Cc2ccccc2)NC(=O)[C@H]([C@@H](C)O)NC(=O)[C@H](CCCCN)NC(=O)[C@H](Cc2c[nH]c3ccccc23)NC(=O)[C@H](Cc2ccccc2)NC(=O)[C@H](Cc2ccccc2)NC(=O)[C@H](CC(N)=O)NC(=O)[C@H](CCCCN)NC1=O [SOMATOSTATIN] | 1 | – | – | – | –
9 | C[C@@H](O)[C@@H]1NC(=O)[C@H](CCCCN)N(C)C(=O)[C@@H](Cc2c[nH]c3ccccc23)NC(=O)[C@H](Cc2ccccc2)NC(=O)[C@@H]2CCCN2C(=O)[C@H](Cc2ccccc2)NC1=O | 1.6 | 0.5 | – | – | Relative potency (Rattus norvegicus [6]): Active
10 | C[C@@H](O)[C@@H]1NC(=O)[C@H](CCCCN)NC(=O)[C@H](Cc2c[nH]c3ccccc23)NC(=O)[C@H](Cc2ccccc2)NC(=O)CN2CCC[C@@H](NC1=O)C2=O | < 0.005 | < 0.07 | – | – | Relative potency (Rattus norvegicus [2]): < 0.07
11 | COc1cccc2c1C(=O)c1c(O)c3c(c(O)c1C2=O)C[C@@](O)(C(=O)CO)C[C@@H]3OC1CC(NC(=O)[C@H](CC(C)C)NC(=O)[C@H](CO)NC(=O)[C@H](CCC(N)=O)NC(=O)[C@@H](NC(=O)[C@H](CO)NC(=O)[C@H](C)NC(=O)[C@H](CCCCN)NC(C)=O)C2CCCCC2)C(O)C(C)O1 (stereo partly specified) (Ac-KAS[Chg]QSL-X1) | – | – | 10 | – | pEC50 (DuPro): < 4.00
12 | C[C@H](O)[C@H]1NC(=O)[C@@H](Cc2ccccc2)N(C)C(=O)[C@@H](C)NC(=O)[C@@H](Cc2ccccc2)NC(=O)[C@@H](Cc2c[nH]c3ccccc23)CNC(=O)[C@H](CCCCN)NC1=O | 0.88 | – | – | – | –
13 | C[C@H](O)[C@H]1NC(=O)[C@@H](Cc2ccccc2)N(C)C(=O)[C@@H](C)NC(=O)[C@@H](Cc2ccccc2)NC(=O)[C@H](Cc2c[nH]c3ccccc23)CNC(=O)[C@@H](CCCCN)NC1=O | 0.27 | – | – | – | –
14 | C[C@@H](O)[C@@H]1NC(=O)[C@H](CCCCN)NC(=O)[C@@H](Cc2c[nH]c3ccccc23)NC(=O)[C@H](Cc2ccccc2)NC(=O)CN2CC[C@@H](NC1=O)C2=O | 0.001 | < 0.2 | – | – | Relative potency (Rattus norvegicus [2]): < 0.2
15 | CC[C@]1(O)CC[C@@H]2CN1CCC1c3ccccc3NC1[C@@H](c1cc3c(cc1OC)N(C)C1C34CCN3CC=C[C@](CC)(C34)[C@@H](OC(C)=O)[C@]1(O)C(=O)OC)[C@H]2C(=O)OC (stereo partly specified) | – | – | – | 6.30 | –
16 | COc1cccc2c1C(=O)c1c(O)c3c(c(O)c1C2=O)C[C@@](O)(C(=O)CO)C[C@@H]3OC1CC(NC(=O)[C@H](CC(C)C)NC(=O)[C@H](CO)NC(=O)[C@H](CCC(N)=O)NC(=O)[C@@H](NC(=O)[C@H](CO)NC(=O)[C@H](C)NC(=O)C2C[C@@H](O)CN2C(C)=O)C2CCCCC2)C(O)C(C)O1 (stereo partly drawn) (Ac-[ξPro(4R-OH)]AS[Chg]QSL-X1) | – | – | 20 | 5.35 | pEC50 (DuPro): 4.00
17 | CC[C@]1(O)CC[C@@H]2CN1CCC1c3ccccc3NC1[C@@H](c1cc3c(cc1OC)N(C)C1C34CCN3CC=C[C@](CC)(C34)[C@@H](OC(=O)[C@@H]3CCCN3C(=O)[C@H](CO)NC(=O)[C@H](CO)NC(=O)[C@H](CCC(N)=O)NC(=O)[C@@H](NC(=O)[C@H](CO)NC(=O)[C@H](CO)NC(=O)[C@@H]3CC(O)CN3C(C)=O)C3CCCCC3)[C@]1(O)C(=O)OC)[C@H]2C(=O)OC (stereo partly specified) | – | – | 12 | 5.80 | Tumor weight reduction (Mus musculus [7]): 85%; pEC50 (T47D): < 4.30; MTD (Mus musculus [8]): 21.4 µM/kg; pEC50 (COLO 320): 4.85; PSA (Mus musculus [9]): 99%
18 | COc1cccc2c1C(=O)c1c(O)c3c(c(O)c1C2=O)C[C@@](O)(C(=O)CO)C[C@@H]3OC1CC(NC(=O)[C@H](CC(C)C)NC(=O)[C@H](CO)NC(=O)[C@H](CCC(N)=O)NC(=O)[C@@H](NC(=O)[C@H](CO)NC(=O)[C@H](C)NC(=O)C2C[C@@H](O)CN2C(=O)CCC(=O)O)C2CCCCC2)C(O)C(C)O1 (stereo partly drawn) (Suc-[ξPro(4R-OH)]AS[Chg]QSL-X1) | – | – | 55 | 5.24 | pEC50 (DuPro): 4.00
19 | COc1cccc2c1C(=O)c1c(O)c3c(c(O)c1C2=O)C[C@@](O)(C(=O)CO)C[C@@H]3O[C@H]1C[C@H](NC(=O)[C@H](CC(C)C)NC(=O)[C@H](CO)NC(=O)[C@H](CO)NC(=O)[C@H](CCC(N)=O)NC(=O)[C@H](Cc2ccc(O)cc2)NC(=O)[C@H](CO)NC(=O)[C@H](C)NC(=O)[C@H](CCCCN)NC(=O)[C@H](CC(N)=O)NC(=O)[C@H](C)NC(C)=O)[C@H](O)[C@H](C)O1 (Ac-ANKASYQSSL-{Doxorubicin(3'-N)}) | – | – | 100 | – | pEC50 (DuPro): < 4.00
20 | CC[C@]1(O)CC[C@@H]2CN1CCC1c3ccccc3NC1[C@@H](c1cc3c(cc1OC)N(C)C1C34CCN3CC=C[C@](CC)(C34)[C@@H](O)[C@]1(O)C(=O)OC)[C@H]2C(=O)OC (stereo partly specified) | – | – | – | 7.00 | Tumor weight reduction (Mus musculus [10]): 16%; MTD (Mus musculus [7]): 0.26 µM/kg; pEC50 (T47D): 6.82; pEC50 (COLO 320): 6.70; PSA (Mus musculus [9]): 14%
21 | C[C@@H](O)[C@@H]1NC(=O)[C@H](CCCCN)NC(=O)[C@@H](Cc2c[nH]c3ccccc23)NC(=O)[C@H](Cc2ccccc2)NC(=O)[C@H](C)N(C)C(=O)[C@H](Cc2ccccc2)NC1=O | 3.5 | 6 | – | – | Relative potency (Rattus norvegicus [2]): 16.7
22 | COc1cccc2c1C(=O)c1c(O)c3c(c(O)c1C2=O)C[C@@](O)(C(=O)CO)C[C@@H]3OC1CC(NC(=O)[C@H](CC(C)C)NC(=O)[C@H](CO)NC(=O)[C@H](CCC(N)=O)NC(=O)[C@H](Cc2ccc(O)cc2)NC(=O)[C@H](CO)NC(=O)[C@H](C)NC(=O)[C@H](CCCCN)NC(C)=O)C(O)C(C)O1 (stereo partly specified) (Ac-KASYQSL-X1) | – | – | 30 | – | –
